# Experimental data: ChEMBL document CHEMBL2440087, “Novel complex crystal structure of prolyl hydroxylase domain-containing protein 2 (PHD2): 2,8-Diazaspiro[4.5]decan-1-ones as potent, orally bioavailable PHD2 inhibitors” (Bioorg Med Chem, 2013)
# Columns and labels:
# [1] = tested on: Mus musculus; test: Dose normalized AUC in C57BL/6 mouse at 10 mg/kg, po; format: ADME, organism-based; parameters: dose 10 mg/kg, route oral; conditions: in vivo
# [2] = tested on: Mus musculus; test: Dose normalized AUC (0 to t) in C57BL/6 mouse at 10 mg/kg, po; format: ADME, organism-based; parameters: dose 10 mg/kg, route oral; conditions: in vivo
Compound,AUC/dose [1],AUCt/dose [2]
Cc1cccnc1CN1CCC2(CC1)CCN(c1ccc(-c3ccc(C(=O)O)cc3)cc1)C2=O,634 ng·h/mL/mg/kg,
Cc1cc(CCC(=O)O)cnc1CN1CCC2(CC1)CCN(c1ccc(-c3ccccc3)cc1)C2=O,,22.6 ng·h/mL/mg/kg
